In US10342796B2, “Acrylanilide derivative, preparation method, and applications thereof in pharmacy” (Ancureall Pharmaceutical (Shanghai) Co., Ltd., priority 2015, dated 2019):
Where two headings read alike, the source gives them in different places. Each block holds one compound with its values, some of them ahead of it.

Assays:
[1] = tested on: SW48 (EGFR G719S positive); test: Growth inhibition GI50 in vitro (CCK8/MTT, 72 h); type: cell-based; conditions: Homo sapiens
Experimental: PC-9ER is an acquired Erlotinib resistance cell line of PC-9 cells developed by the investor. […] The four cell lines above were cultured with 1×RPMI1640 complete medium (supplement with 10% FBS). Human colon cancer cell line SW48 (EGFR G719S positive, ATCC). was cultured with L15 complete medium (10% FB S).
The suspension cells were collected by centrifugation. The supernatant was discard and the cell pellet was resuspended and counted. Different cell concentrations (5˜10×10^4 cells/mL) were prepared according to the growth cycle of each cell line and then seeded on a 96-well plate (Corning), 100 μL/well. The cells were incubated over night at 37° C., 5% CO2. The compounds were added to the cells on the second day with 2 wells in parallel. The final concentration of organic solvent shall not exceed 1%. The cells were continually incubated for 72 h, and then subjected to MTT assay.
The present compounds and the reference compounds were dissolved with DMSO (Sigma), respectively. […] The storage concentration of compounds was 10 mM and kept at −20° C. They were diluted by 2 times or 10 times with serial dilution before using.
Dojindo CCK8 reagent kit was used as MTT assay. […] FC meter was used as microplate reader.
Adherent cell culture medium was discard and immediately replaced with fresh prepared medium which contains 10% CCK8 reagent (100 μL/well). For the suspension cells, CCK8 was directly added to 10% of the final concentration. The cells were continually incubated for 1˜4 h. When the color of control wells turned to dark yellow, the absorption value was measured at OD450 nm. The cell growth rate was calculated according to the following formula: cell growth rate (%)=100*(T−T0)/(C−T0), T=optical density of drug treatment cell well—optical density of blank control well; T0=optical density of cell well before drug treatment—optical density of blank control well; C=optical density of cell well of solvent control group—optical density of blank control well. […] The experiment was independently repeated 1˜3 times, and subject to biological statistical analysis.
Each compound started at 1000 nM as an initial concentration and was diluted by […] with serial dilution to 0.03 nM.

Pharmacokinetics in rat = type: in vivo, Sprague-Dawley (SD) rats; conditions: male, Sprague-Dawley, plasma, SD rat, iv 5 mg/kg, solvent water
Experimental: Sprague-Dawley (SD) rats (male) were purchased from Shanghai SIPPR BK Laboratory Animals Co. and kept under specific pathogen-free conditions adaptively for 7 days in the Shanghai University of Traditional Chinese Medicine animal care facility (All animal studies were conducted with the approval of the University Ethics Committee). The rats were randomly divided to 2 groups (3 rats/group) for each compound. One group was administrated by tail vein injection (iv) and the other group was intragastrically administrated. The compound was formulated into a clear aqueous solution with methanesulfonic acid, PH>3.5. The rats were starved for 12 hours before drug administration and the blood samples were collected from the orbital plexus at 0 min (before drug administration), 2 min, 5 min, 15 min, 30 min, 1 h, 2 h, 4 h, 6 h, 8 h and 24 h, respectively. Each blood sample was added to a 1.5 mL centrifuge tube with heparin sodium and then centrifuged at 8000 rpm at 4° C. for 3 min. Upper blood serum was collected. The compound concentration in plasma was determined by LC-MS/MS. The pharmacokinetics parameters were calculated with the professional pharmacokinetics software WinNonlin. The experiment was repeated once.

bioavailability (Pharmacokinetics in rat; po 50 mg/kg): 40.9%
SMILES: C=CC(=O)Nc1cc(Nc2nccc(-n3ccc4c(OC)cccc43)n2)c(OC)cc1N(C)CCN(C)C [Compound 99, N-(5-(4-(4-methoxyl-1H-indol-1-yl)-pyrimidin-2-ylamino)-2-(2-(dimethylamino-ethyl)-methyl-amino)-4-methoxyl-phenyl)-acrylamide]

GI50 ([1]; SW48, Table 15, 1000 nM to 0.03 nM serial dilution, read-out: GI50 SW48 (EGFR G719S)): 4.23 nM
SMILES: C=CC(=O)Nc1cc(Nc2cc(Nc3cc(F)c(OC)c(Cl)c3)ncn2)c(OC)cc1N(C)CCN(C)C [Compound 236, N-(5-(6-(3-chloro-5-fluoro-4-methoxyphenylamino)-pyrimidin-4-yl-amino)-2-((2-dimethylamino-ethyl)-methyl-amino)-4-methoxyl-phenyl)-acrylamide]

Second part, the compound before the results:

SMILES: C=CC(=O)Nc1cc(Nc2nccc(-c3cn(C)c4ccccc34)n2)c(OC)cc1N(C)CCN(C)C [AZD9291, reference compound]
GI50 ([1]; SW48, read-out: GI50 SW48 (EGFR G719S)): 156 nM

SMILES: C=CC(=O)Nc1cc(Nc2nccc(Nc3ccc(OCc4ccccn4)c(Cl)c3)n2)c(OC)cc1N(C)CCN(C)C [Compound 18, N-(5-(4-(3-chloro-4-(pyridin-2-methoxyl)phenylamino)pyrimidin-2-ylamino)-2-((2-(dimethylamino)ethyl)(methyl)amino)-4-methoxyl-phenyl)-acrylamide]
bioavailability (Pharmacokinetics in rat; po 25 mg/kg): 50.3%

SMILES: C=CC(=O)Nc1cc(Nc2nccc(-n3ccc4ccc(F)cc43)n2)c(OC)cc1N(C)CCN(C)C [Compound 63, N-(5-(4-(6-fluoro-1H-indol-1-yl)-pyrimidin-2-ylamino)-2-((2-(dimethylamino)ethyl)-methyl-amino)-4-methoxyl-phenyl)-acrylamide]
bioavailability (Pharmacokinetics in rat; po 25 mg/kg): 55.8%
